Assay results taken from ChEMBL document CHEMBL1201862, “PubChem BioAssay data set” (2004).
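Protocol summary: plate cells (96-well), add compound at 5 concentrations, incubate 48 h, interpolate endpoints linearly. GI50 = concentration required for 50% inhibition of growth.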 Active and inactive are the calls of the source. Rule as the data show it: active = GI50 up to about 1.1 µM and inactive = higher.

Legend:
Experiment in all cases: NCI tumour cell line growth inhibition, 48 h
[1] = system: COLO 205
[2] = system: SK-MEL-28
[3] = system: SR
[4] = system: HT-29
[5] = system: ACHN
[6] = system: K562
[7] = system: BT-549
[8] = system: TK-10
[9] = system: PC-3
[10] = system: OVCAR-4
[11] = system: SNB-19
[12] = system: OVCAR-8
[13] = system: HCT-116
[14] = system: A549
[15] = system: MDA-MB-231
[16] = system: CCRF-CEM
[17] = system: SNB-75
[18] = system: IGROV-1
[19] = system: MDA-N

| SMILES | GI50 [1] | GI50 [2] | GI50 [3] | GI50 [4] | GI50 [5] | GI50 [6] | GI50 [7] | GI50 [8] | GI50 [9] | GI50 [10] | GI50 [11] | GI50 [12] | GI50 [13] | GI50 [14] | GI50 [15] | GI50 [16] | GI50 [17] | GI50 [18] | GI50 [19] |
| --- | --- | --- | --- | --- | --- | --- | --- | --- | --- | --- | --- | --- | --- | --- | --- | --- | --- | --- | --- |
| COC(=O)c1ccc(NCC2=CC(=O)C=CC2=O)cc1 | 2.69 µM (inactive) | 15.1 µM (inactive) | 5.26 µM (inactive) | 17.9 µM (inactive) | 14 µM (inactive) | 2.69 µM (inactive) | 13.6 µM (inactive) | 10.8 µM (inactive) | 12.6 µM (inactive) | 12.4 µM (inactive) | 14.8 µM (inactive) | 13.9 µM (inactive) | 3.74 µM (inactive) | 22.7 µM (inactive) | 14.2 µM (inactive) | 1.67 µM (inactive) | 16.3 µM (inactive) | 16.7 µM (inactive) | 11.4 µM (inactive) |
| O=C1NC(=O)C(F)(n2cc(F)c(=O)[nH]c2=O)C(O)N1 (stereo not given) | > 10 µM (inactive) | > 10 µM (inactive) | > 10 µM (inactive) | > 10 µM (inactive) | > 10 µM (inactive) | > 10 µM (inactive) | > 10 µM (inactive) | > 10 µM (inactive) | > 10 µM (inactive) | > 10 µM (inactive) | > 10 µM (inactive) | > 10 µM (inactive) | > 10 µM (inactive) | > 10 µM (inactive) | > 10 µM (inactive) | > 10 µM (inactive) | > 10 µM (inactive) | > 10 µM (inactive) | > 10 µM (inactive) |
| Cc1nn(C(=O)c2ccc(Cl)cc2)c2c1C(c1ccccc1)SC(=N)N2 (stereo not given) | > 10 µM (inactive) | > 10 µM (inactive) | > 10 µM (inactive) | > 10 µM (inactive) | > 10 µM (inactive) | > 10 µM (inactive) | > 10 µM (inactive) | > 10 µM (inactive) | > 10 µM (inactive) | > 10 µM (inactive) | > 10 µM (inactive) | > 10 µM (inactive) | > 10 µM (inactive) | > 10 µM (inactive) | > 10 µM (inactive) | > 10 µM (inactive) | > 10 µM (inactive) | > 10 µM (inactive) | > 10 µM (inactive) |
| CC(=O)NC1(C)C(C)C2CC1C(C)C2(C)C (stereo not given) | > 100 µM (inactive) | > 100 µM (inactive) | > 100 µM (inactive) | > 100 µM (inactive) | > 100 µM (inactive) | > 100 µM (inactive) | > 100 µM (inactive) | > 100 µM (inactive) | > 100 µM (inactive) | > 100 µM (inactive) | > 100 µM (inactive) | > 100 µM (inactive) | > 100 µM (inactive) | > 100 µM (inactive) | > 100 µM (inactive) | > 100 µM (inactive) | > 100 µM (inactive) | > 100 µM (inactive) | > 100 µM (inactive) |
| N/N=C1\C(OC(=O)Nc2cccc(Cl)c2)=Nc2ccccc21 | 6.95 µM (inactive) | 14.8 µM (inactive) | 11.4 µM (inactive) | 6.59 µM (inactive) | 8 µM (inactive) | 5.92 µM (inactive) | 7.96 µM (inactive) | 12.1 µM (inactive) | 4.98 µM (inactive) | 7.33 µM (inactive) | 7.13 µM (inactive) | 7.31 µM (inactive) | 4.67 µM (inactive) | 5.92 µM (inactive) | 12.1 µM (inactive) | 5.93 µM (inactive) | 6.22 µM (inactive) | 8.15 µM (inactive) | 3.12 µM (inactive) |
| O=C(Nc1cccc2nsnc12)c1cc2c(cc1Cl)Sc1nccn1S2(=O)=O | 18 µM (inactive) | 3.01 µM (inactive) | 2.73 µM (inactive) | 2.74 µM (inactive) | 12.7 µM (inactive) | 3.98 µM (inactive) | 15.1 µM (inactive) | 6.01 µM (inactive) | 1.9 µM (inactive) | 3.31 µM (inactive) | 12.1 µM (inactive) | 2.73 µM (inactive) | 2.77 µM (inactive) | 17.3 µM (inactive) | 8.26 µM (inactive) | 3.28 µM (inactive) | 8.02 µM (inactive) | 11.5 µM (inactive) | 14.1 µM (inactive) |
| O=C([O-])C(O)C(O)C(=O)O.[K+] (stereo not given) [POTASSIUM HYDROGENTARTRATE] | > 100 µM (inactive) | > 100 µM (inactive) | > 100 µM (inactive) | > 100 µM (inactive) | > 100 µM (inactive) | > 100 µM (inactive) | > 100 µM (inactive) | > 100 µM (inactive) | > 100 µM (inactive) | > 100 µM (inactive) | > 100 µM (inactive) | > 100 µM (inactive) | > 100 µM (inactive) | > 100 µM (inactive) | > 100 µM (inactive) | > 100 µM (inactive) | > 100 µM (inactive) | > 100 µM (inactive) | > 100 µM (inactive) |
| CC1(C)OCC(C2OC(On3nnc4ccc(Cl)cc43)C3OC(C)(C)OC23)O1 (stereo not given) | > 100 µM (inactive) | > 100 µM (inactive) | > 100 µM (inactive) | > 100 µM (inactive) | > 100 µM (inactive) | 22.4 µM (inactive) | > 100 µM (inactive) | > 100 µM (inactive) | > 100 µM (inactive) | > 100 µM (inactive) | > 100 µM (inactive) | > 100 µM (inactive) | > 100 µM (inactive) | > 100 µM (inactive) | > 100 µM (inactive) | > 100 µM (inactive) | 98.9 µM (inactive) | > 100 µM (inactive) | > 100 µM (inactive) |
| Nc1nc(SCC(=O)c2ccccc2)nc2nc3c(c(-c4ccccc4)c12)CCCC3 | > 10 µM (inactive) | 21.9 µM (inactive) | > 100 µM (inactive) | 27.1 µM (inactive) | 56.6 µM (inactive) | > 100 µM (inactive) | 40.9 µM (inactive) | > 100 µM (inactive) | > 10 µM (inactive) | 23.4 µM (inactive) | 49.9 µM (inactive) | 27.2 µM (inactive) | 30.5 µM (inactive) | 45.1 µM (inactive) | 19.1 µM (inactive) | 74.8 µM (inactive) | 26.4 µM (inactive) | > 10 µM (inactive) | 31.9 µM (inactive) |
| CC1(C)C2CCC1(C)C(OC(=O)/C=C/C(=O)OC1CC3CCC1(C)C3(C)C)C2 (stereo not given) | 75.2 µM (inactive) | 18.9 µM (inactive) | 20.1 µM (inactive) | 40 µM (inactive) | > 100 µM (inactive) | 31.9 µM (inactive) | 44.7 µM (inactive) | > 100 µM (inactive) | > 100 µM (inactive) | > 100 µM (inactive) | 51.4 µM (inactive) | > 100 µM (inactive) | 56.9 µM (inactive) | > 100 µM (inactive) | > 100 µM (inactive) | 11.4 µM (inactive) | 0.902 µM (active) | > 100 µM (inactive) | 60.4 µM (inactive) |
| N=C1C(O)C2(I)c3ccccc3N3C(=N)C(O)C4c5ccccc5N1C4C32 (stereo not given) | 26.2 µM (inactive) | 90.6 µM (inactive) | 34.3 µM (inactive) | 95.1 µM (inactive) | 39.4 µM (inactive) | 26.4 µM (inactive) | > 100 µM (inactive) | > 100 µM (inactive) | 41.7 µM (inactive) | 16 µM (inactive) | 63.7 µM (inactive) | 33.5 µM (inactive) | 36.7 µM (inactive) | 51.8 µM (inactive) | 26.4 µM (inactive) | 2.3 µM (inactive) | > 100 µM (inactive) | 19.9 µM (inactive) | 42.7 µM (inactive) |
| c1ccc(/C(=N\Nc2nc3ccccc3s2)c2ccccn2)cc1 | 1.37 µM (inactive) | 8.13 µM (inactive) | 0.891 µM (active) | 1.87 µM (inactive) | 0.815 µM (active) | 1.72 µM (inactive) | 18.8 µM (inactive) | 1.38 µM (inactive) | 5.7 µM (inactive) | 2.66 µM (inactive) | 5.77 µM (inactive) | 2.52 µM (inactive) | 1.88 µM (inactive) | 3.09 µM (inactive) | 4.74 µM (inactive) | 0.0603 µM (active) | 19.7 µM (inactive) | 4.69 µM (inactive) | 4.94 µM (inactive) |
| O=c1[nH]c(=O)n(COCCO)c2ccsc12 | > 100 µM (inactive) | > 100 µM (inactive) | > 100 µM (inactive) | > 100 µM (inactive) | > 100 µM (inactive) | > 100 µM (inactive) | > 100 µM (inactive) | > 100 µM (inactive) | > 100 µM (inactive) | > 100 µM (inactive) | 32.4 µM (inactive) | > 100 µM (inactive) | > 100 µM (inactive) | > 100 µM (inactive) | > 100 µM (inactive) | > 100 µM (inactive) | > 100 µM (inactive) | > 100 µM (inactive) | > 100 µM (inactive) |
| Cc1cc2c(c(=O)o1)C1=S(SC(c3ccccc3)=C1)S2 (stereo not given) | > 100 µM (inactive) | > 100 µM (inactive) | 18.3 µM (inactive) | 38.9 µM (inactive) | 34.7 µM (inactive) | 38.4 µM (inactive) | > 100 µM (inactive) | 32.2 µM (inactive) | 24.4 µM (inactive) | 29 µM (inactive) | 28.2 µM (inactive) | 54.7 µM (inactive) | 22.8 µM (inactive) | 33.7 µM (inactive) | 57.4 µM (inactive) | > 100 µM (inactive) | 26 µM (inactive) | 55.5 µM (inactive) | > 100 µM (inactive) |
| COc1ccccc1NS(=O)(=O)c1ccc2ncn(NS(=O)(=O)c3ccc(Cl)cc3)c(=O)c2c1 | > 100 µM (inactive) | > 100 µM (inactive) | 63.8 µM (inactive) | > 100 µM (inactive) | > 100 µM (inactive) | 3.36 µM (inactive) | > 100 µM (inactive) | > 100 µM (inactive) | 5.51 µM (inactive) | > 100 µM (inactive) | > 100 µM (inactive) | > 100 µM (inactive) | > 100 µM (inactive) | 75 µM (inactive) | > 100 µM (inactive) | 54.7 µM (inactive) | > 100 µM (inactive) | > 100 µM (inactive) | 67.9 µM (inactive) |
